What was measured:
[1] = Bioavailability of transdermal MENT gel formulations in rabbits (serum MENT by radioimmunoassay); format: in vivo, New Zealand white rabbits
Experimental: The bioavailability of three transdermal MENT gel formulations (2 mg MENT/g gel) (formulations O, F and T) were studied in rabbits. Three New Zealand white rabbits weighing 3.5-4.5 kg were used in each group. To each animal, 0.2 g gel (0.4 mg MENT) or 0.4 g gel (0.8 mg MENT) was applied to 5×5 cm or 10×10 cm area of shaved skin for three consecutive days. On days 1 and 3, blood samples were collected at 0, 1, 2, 4 and 8 hours after application of the gel. Serum MENT levels were determined by radioimmunoassay.

[2] = In vitro permeation (flux) across rat skin, modified Franz diffusion cell; format: in vitro ADME, Sprague-Dawley rats
From the text: The flux of a specific formulation can be determined using a modified Franz diffusion cell as discussed herein. First, skin from female Sprague-Dawley rats (200-250 g body weight) can be obtained. The rats are anesthetized, the abdominal skin shaved and then excised. Excess fat and connective tissues are removed. The skin (1.77 cm^2) is sandwiched between the two chambers of a modified Franz diffusion cell, with the surface of the skin facing the upper (donor) chamber of the cell. A measured amount of the androgen containing formulation is applied to the surface of the skin, so that the skin is completely covered. The lower (recipient) chamber is filled with sterile saline, which completely bathes the lower surface of the rat skin. The contents of the recipient chamber are constantly stirred with a magnetic stirrer. Aliquots of the saline in the recipient chamber is removed at predetermined intervals and analyzed by HPLC. The saline remains in constant contact with the skin at all times. The Franz cell is maintained at 37° C. for the duration of each test.
An in vitro modified Franz cell system as described in Example 2 was used to study the permeability of testosterone and MENT from various transdermal dosage forms through rat skin. Various topical cream, gel and patch formulations were tested. The concentration of testosterone and MENT in all of the gels and creams described herein was 2 mg per gram of gel or cream. The following formulations were tested: […]
The gel (nearly identical to formulation T from Example 1) was produced by taking all of the aqueous components and mixing them under medium agitation in one vessel and all the organic, non-aqueous materials and mixing them in a separate vessel. The organic mixture and aqueous mixture were then mixed together using medium agitation provided by a paddle mixer. Of course, a lightning mixer or magnetic stirrer could also be used. The viscosity profile of the gel produced is illustrated in FIG. 20. Steroid permeation (in vitro) across Rat Skin for each of these gel formulations were tested using a two chambers of a modified Franz diffusion cell as previously described. Skin from female Sprague-Dawley rats (200-250 g body weight) were used in these studies. The rats were anesthetized, the abdominal skin was shaved and excised. Excess fat and connective tissues were removed. The skin (1.77 cm^2) was sandwiched between the two chambers of a modified Franz diffusion cell, with the surface of the skin facing the upper (donor) chamber of the cell. Approximately 0.5 gm of gel (1 mg steroid) was applied to the surface of the skin, so that the skin was completely covered with the gel. The lower (recipient) chamber was filled with 11.4 ml of sterile saline, which completely bathed the lower surface of the rat skin. The contents of the recipient chamber was constantly stirred with a magnetic stirrer during the experiment. Aliquots of 200 μL of the saline in the recipient chamber were removed at intervals of 1 h for 4 h; and analyzed by HPLC for either MENT on T. The saline remained in constant contact with the skin at all times. The Franz cell was maintained at 37° C. for the duration of the test.

## C[C@@H]1CC2=CC(=O)CC[C@@H]2[C@H]2CC[C@]3(C)[C@@H](O)CC[C@H]3[C@@H]21 [MENT, 7α-methyl-19-nortestosterone]
[1]; 0.4 vs 0.8 mg MENT, Table 1
  Dose dependence of bioavailability: dose dependent
[1]; gel formulations O, F and T, FIGS. 14 to 19
  Permeation through rabbit skin / serum levels: permeated through rabbit skin and give measurable serum levels
[2]; all other formulations (1 patch, 2 creams and 7 gels), FIGS. 3 to 7 and 9 to 13
  Permeation (concentrations and flux rates) through rat skin compared with testosterone: considerably higher concentrations and flux rates than that of testosterone
[2]; certain dosage forms (FIGS. 3, 4, 6, 7, 10, 11 and 12)
  Flux across rat skin compared with testosterone: more than double that of testosterone
[2]; gel of Example 2, 0.5 gm gel (1 mg steroid), 1-4 h, FIG. 1
  Rate of skin penetration compared with T: faster rate than T
[2]; gel of Example 2, each time period studied, FIG. 2
  Steroid flux compared with T: greater at each time period studied
[2]; general statement, no data shown
  Flux compared with MENT Ac: generally greater than that of MENT Ac
[2]; summary statement, depending upon the particular transdermal formulation
  Flux compared with testosterone: as much as twice that of testosterone or more
